The source of these data is ChEMBL document CHEMBL1126459, “Substituted Benzamides with Conformationally Restricted Side Chains. 3. Azabicyclo[x.y.0] derivatives as gastric prokinetic agents” (Bioorg Med Chem Lett, 1992).

One assay has as its system Mus musculus. Put plainly: Dopamine antagonist activity expressed as inhibition of apomorphine-induced climbing in mice, subcutaneous administration. It is filed as functional.
The subject of assay [1] is Rattus norvegicus. Put plainly: Prokinetic activity expressed as stimulation of intragastric pressure in rat at the lowest active dose in mg/kg on subcutaneous administration. It is filed as functional.
A short description of assay [2]: Selectivity at Dopamine receptors compared to 5-HT receptors. It is filed as functional.
For a further assay, the target named is D(2) dopamine receptor (Rattus norvegicus, UniProt P61169). Put plainly: Compound was tested against Dopamine receptor D2 by displacement of [125I]iodosulpiride radioligand from rat D2 clones. On the technique in general: In a radioligand displacement assay an active substance lowers the binding of a labelled ligand.
Sequence of D(2) dopamine receptor (P61169 whole entry): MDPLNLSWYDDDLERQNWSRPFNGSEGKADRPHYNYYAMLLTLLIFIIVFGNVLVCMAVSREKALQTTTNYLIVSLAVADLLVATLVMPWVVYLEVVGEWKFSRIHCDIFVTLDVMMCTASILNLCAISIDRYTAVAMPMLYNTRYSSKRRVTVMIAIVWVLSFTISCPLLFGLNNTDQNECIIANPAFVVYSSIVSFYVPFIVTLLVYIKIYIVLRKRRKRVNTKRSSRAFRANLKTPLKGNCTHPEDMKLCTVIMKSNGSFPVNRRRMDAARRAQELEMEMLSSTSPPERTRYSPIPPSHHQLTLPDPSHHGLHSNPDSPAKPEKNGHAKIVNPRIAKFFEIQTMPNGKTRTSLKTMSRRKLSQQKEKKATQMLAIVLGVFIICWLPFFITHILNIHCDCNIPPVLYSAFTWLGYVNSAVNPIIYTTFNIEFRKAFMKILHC
Assay [3] has as its system Rattus norvegicus. Put plainly: Antagonist activity against 5-HT3 receptor was assessed from ability to inhibit the 5-HT -induced bradycardia when dose given intravenously; inactive up to 1 mg/kg. In kind it is functional, organism-based. More on the design: dose 1 mg/kg.
The mark [4] stands for this setting: Mus musculus, sc, read-out: ED50.

The source made the active and inactive calls. The rule behind the calls is not given here. Bounds are passed on as bounds.

Broadly, the ED50 is the midpoint of the dose-response relation. Turning to `COc1cc(N)c(Cl)cc1C(=O)NC1CCN2CCCC12` (centres undefined), in the assay with Mus musculus (setting [4]), the ED50 stood at 7.5 mg/kg. The compound also displayed an Activity in the assay with Rattus norvegicus [1] of 0.5 mg/kg. Besides, the Ratio in assay [2] came out at 15. On the same counts, the results for `CCCC1CCCC2CC(NC(=O)c3cc(Cl)c(N)cc3OC)CCN12` (centres undefined) are > 10 mg/kg, 1 mg/kg and > 10.

A word on the IC50: it is the concentration that inhibits the measured activity by half. The low end stands for inhibition by little substance, the high end for a need for much substance. The compound `COc1cc(N)c(Cl)cc1C(=O)NC[C@H]1CCC2CCCCN2C1` (some centres undefined) came in with an IC50 at D(2) dopamine receptor of 3.9 µM. Also, in the assay on Mus musculus (setting [4]), the ED50 was > 25 mg/kg. This compound displayed an Activity in the assay with Rattus norvegicus [1] of 0.2 mg/kg. The outcome in the assay with Rattus norvegicus [3] was inactive. Further, the Ratio in assay [2] was > 125. Regarding `COc1cc(N)c(Cl)cc1C(=O)NC1CCN2CCCC2(C)C1` (centres undefined), the ED50 in the assay on Mus musculus (setting [4]) is > 30 mg/kg. Moreover, the Activity with Rattus norvegicus [1] is >1 mg/kg. As to `COc1cc(N)c(Cl)cc1C(=O)NC1CCN2C(C)CCC2C1` (centres undefined), the ED50 with Mus musculus (setting [4]) amounted to 15 mg/kg. The Activity with Rattus norvegicus [1] was 0.5 mg/kg. Further, in assay [2], the Ratio came to 30. Regarding `COc1cc(N)c(Cl)cc1C(=O)NC1CCC2CCCCN2CC1` (centres undefined), the ED50 in the assay with Mus musculus (setting [4]) is > 50 mg/kg. In addition, the Activity in the assay with Rattus norvegicus [1] was >25 mg/kg. Take `COc1cc(N)c(Cl)cc1C(=O)NCC1CC2CCCCN2C1` (centres undefined): the Activity in the assay on Rattus norvegicus [1] is >25 mg/kg. In the assay on Rattus norvegicus [3], the outcome was inactive. `COc1cc(N)c(Cl)cc1C(=O)NCC1CCC2CCCCN2C1` (centres undefined): the Activity in the assay on Rattus norvegicus [1] came to 5 mg/kg.

In the case of `COc1cc(N)c(Cl)cc1C(=O)NCC1CCCN2CCCCC12` (single isomer, unassigned), the Activity with Rattus norvegicus [1] was >25 mg/kg. Turning to `COc1cc(N)c(Cl)cc1C(=O)NCC1CCC2CCCCN21` (single isomer, unassigned) [listing 1 of 2 here], the ED50 with Mus musculus (setting [4]) was determined as 15 mg/kg. This compound returned an Activity in the assay on Rattus norvegicus [1] of 0.2 mg/kg. In the case of `COc1cc(N)c(Cl)cc1C(=O)NC1CCN2CCCCC12` (single isomer, unassigned) [listing 1 of 2 here], the ED50 in the assay with Mus musculus amounted to 0.2 mg/kg. In the assay on Rattus norvegicus [1], this compound registered an Activity of 0.5 mg/kg.

On to `COc1cc(N)c(Cl)cc1C(=O)NC1CCN2CCCCC12` (single isomer, unassigned) [listing 2 of 2 here], for which the Ratio in assay [2] was found to be 0.4.

`COc1cc(N)c(Cl)cc1C(=O)NCC1CCC2CCCCN21` (single isomer, unassigned) [listing 2 of 2 here]: the Ratio in assay [2] came to 75. With `COc1cc(N)c(Cl)cc1C(=O)NC1CCCN2CCCCC2C1` (single isomer, unassigned; form 1) [listing 1 of 2 here], the ED50 in the assay with Mus musculus (setting [4]) is > 50 mg/kg. Further, in the assay on Rattus norvegicus [1], the Activity came to 1 mg/kg.

`COc1cc(N)c(Cl)cc1C(=O)NC1CC2CCCCN2C1` (single isomer, unassigned; form 1): the ED50 in the assay with Mus musculus was >10 mg/kg. In the assay with Rattus norvegicus [1], the Activity is >10 mg/kg. `COc1cc(N)c(Cl)cc1C(=O)NC1CCCN2CCCCC2C1` (single isomer, unassigned; form 1) [listing 2 of 2 here]: the Ratio in assay [2] was > 50. The compound `COc1cc(N)c(Cl)cc1C(=O)NC1CCCN2CCCCC2C1` (single isomer, unassigned; form 2) [listing 1 of 2 here] had an ED50 in the assay on Mus musculus of 38 mg/kg. Regarding `COc1cc(N)c(Cl)cc1C(=O)NC1CC2CCCCN2C1` (single isomer, unassigned; form 2), in the assay with Mus musculus, the median effective dose (ED50) was found to be 0.1 mg/kg. For the compound `COc1cc(N)c(Cl)cc1C(=O)NC1CCCN2CCCCC2C1` (single isomer, unassigned; form 2) [listing 2 of 2 here], the Ratio in assay [2] is 38.

The compound `COc1cc(N)c(Cl)cc1C(=O)NCC1CCC2CCCCN21` (stereo in doubt) gave an ED50 in the assay with Mus musculus of 20 mg/kg. The Activity in the assay with Rattus norvegicus [1] was >1 mg/kg. With `COc1cc(N)c(Cl)cc1C(=O)NC1CCN2CCCCC12` (stereo in doubt) [listing 1 of 2 here], the ED50 with Mus musculus amounted to 1.8 mg/kg. Moreover, the Activity in the assay with Rattus norvegicus [1] was found to be 1 mg/kg.

On to `COc1cc(N)c(Cl)cc1C(=O)NC1CCN2C(C)CCCC2C1` (stereo in doubt), for which the Ratio in assay [2] is 50. `COc1cc(N)c(Cl)cc1C(=O)NC1CCN2CCCCC12` (stereo in doubt) [listing 2 of 2 here]: in assay [2], the Ratio was determined as 1.8.

`COc1cc(N)c(Cl)cc1C(=O)NC1CCN2C(C)CCCC2C1` (stereo in doubt) [BRL-20627]: in the assay on Mus musculus (setting [4]), the ED50 amounted to 25 mg/kg. This compound also had an Activity with Rattus norvegicus [1] of 0.5 mg/kg. With `COc1cc(N)c(Cl)cc1C(=O)NC1CCN2C(C)CCCC2C1` (stereo in doubt; 2), in assay [2], the Ratio is 50. In the assay on Mus musculus, `COc1cc(N)c(Cl)cc1C(=O)NC1CCN2C(C)CCCC2C1` (stereo in doubt; 2) [BRL-20627] showed an ED50 of 25 mg/kg. As for `COc1cc(N)c(Cl)cc1C(=O)NC1CCN2CCCC2C1` (stereo in doubt; 8 (Eq)) [listing 1 of 2 here], the ED50 in the assay on Mus musculus (setting [4]) was 6 mg/kg. This compound had an Activity in the assay with Rattus norvegicus [1] of 5 mg/kg. Regarding `COc1cc(N)c(Cl)cc1C(=O)NC1CCN2CCCC2C1` (stereo in doubt; 8 (Eq)) [listing 2 of 2 here], the Ratio in assay [2] amounted to 1.2.

In the assay on Mus musculus, `COc1cc(N)c(Cl)cc1C(=O)NC1CCN2CCCC2C1` (stereo in doubt; 9 (Ax)) [listing 1 of 2 here] came in with an ED50 of 12 mg/kg. Moreover, the Activity with Rattus norvegicus [1] was found to be 0.2 mg/kg. For the compound `COc1cc(N)c(Cl)cc1C(=O)NC1CCN2CCCC2C1` (stereo in doubt; 9 (Ax)) [listing 2 of 2 here], the Ratio in assay [2] is 60. Consider `COc1cc(N)c(Cl)cc1C(=O)NC1CCCN2CCCC12` (stereo in doubt; 10 (Eq)), for which the ED50 in the assay on Mus musculus was found to be 3.5 mg/kg. Moreover, the Activity in the assay on Rattus norvegicus [1] was >5 mg/kg. On the same counts, the results for `COc1cc(N)c(Cl)cc1C(=O)NC1CCCN2CCCC12` (stereo in doubt; 11 (Ax)) [listing 1 of 2 here] are 0.1 mg/kg and 0.5 mg/kg. As to `COc1cc(N)c(Cl)cc1C(=O)NC1CCCN2CCCC12` (stereo in doubt; 11 (Ax)) [listing 2 of 2 here], the Ratio in assay [2] was found to be 0.2. Regarding `COc1cc(N)c(Cl)cc1C(=O)NC1CCN2CC(C)CCC2C1` (stereo in doubt; 17), the ED50 with Mus musculus (setting [4]) is > 10 mg/kg. Moreover, in the assay with Rattus norvegicus [1], the Activity was >5 mg/kg. In turn, `COc1cc(N)c(Cl)cc1C(=O)NC1CCN2CC(C)CCC2C1` (stereo in doubt; 18) came in with an Activity in the assay with Rattus norvegicus [1] of 5 mg/kg. For the compound `COc1cc(N)c(Cl)cc1C(=O)NC1CCN2C(C)CCCC2C1` (stereo in doubt; 19) [BRL-20627], the Activity with Rattus norvegicus [1] is >5 mg/kg. Take `COc1cc(N)c(Cl)cc1C(=O)NC1CCN2C(CCCC2c2ccccc2)C1` (stereo in doubt; 21): the ED50 with Mus musculus (setting [4]) was found to be 5 mg/kg. Consider `COc1cc(N)c(Cl)cc1C(=O)NC1CCN2C(CCCC2c2ccccc2)C1` (stereo in doubt; 22), for which, in the assay on Mus musculus, the ED50 stood at 5 mg/kg. Also, the Activity with Rattus norvegicus [1] was >5 mg/kg. Regarding `COc1cc(N)c(Cl)cc1C(=O)NC1CC(C)N2CCCCC2C1` (stereo in doubt; 23), in the assay with Rattus norvegicus [1], the Activity was >5 mg/kg. As to `COc1cc(N)c(Cl)cc1C(=O)NC1CC(C)N2CCCCC2C1` (stereo in doubt; 25), the ED50 in the assay on Mus musculus (setting [4]) is > 30 mg/kg. Further, in the assay with Rattus norvegicus [1], the Activity was >1 mg/kg. `COc1cc(N)c(Cl)cc1C(=O)NC1CC(C)N2CCCC2C1` (stereo in doubt; 27) [listing 1 of 2 here]: the ED50 in the assay with Mus musculus stood at 10 mg/kg.

On to `COc1cc(N)c(Cl)cc1C(=O)NC1CC(C)N2CCCC2C1` (stereo in doubt; 27) [listing 2 of 2 here], for which the Ratio in assay [2] was determined as 10.

Compound `COc1cc(N)c(Cl)cc1C(=O)NC1CC(C)N2CCCC2C1` (stereo in doubt; 28) [listing 1 of 2 here] gave an ED50 in the assay with Mus musculus of 50 mg/kg. The Activity in the assay on Rattus norvegicus [1] amounted to 1 mg/kg. For `COc1cc(N)c(Cl)cc1C(=O)NC1CC(C)N2CCCC2C1` (stereo in doubt; 28) [listing 2 of 2 here], the Ratio in assay [2] came out at 50. In the assay on Mus musculus, `COc1cc(N)c(Cl)cc1C(=O)NC1CC(C)N2CCCC2C1` (stereo in doubt; 29) [listing 1 of 2 here] yielded an ED50 of 34 mg/kg. Turning to `COc1cc(N)c(Cl)cc1C(=O)NC1CC(C)N2CCCC2C1` (stereo in doubt; 29) [listing 2 of 2 here], the Ratio in assay [2] was 34.

For `COc1cc(N)c(Cl)cc1C(=O)NC1CC(C)N2CCCC2C1` (stereo in doubt; 30), the ED50 in the assay on Mus musculus is >50 mg/kg. Also, in the assay with Rattus norvegicus [1], the Activity was >1 mg/kg.

Turning to `CCN(CC)CCNC(=O)c1cc(Cl)c(N)cc1OC` [METOCLOPRAMIDE], in the assay on Mus musculus (setting [4]), the ED50 was 0.8 mg/kg. In the assay with Rattus norvegicus [1], this compound showed an Activity of 1 mg/kg. Also, in assay [2], the Ratio worked out at 0.8.
